Measurements: patent US12396471B2, “Composition containing sesamin and PQQ” (SUNTORY HOLDINGS LIMITED, priority 2019, dated 2025)

Tested on: TIG-3 cells
Test: Evaluation test of mitochondrial function: amount of ATP production (decrease in oxygen consumption rate by oligomycin) after H2O2 treatment
Format: cell-based
Settings: for Measured value: amount of ATP production (amount of decrease in oxygen consumption rate by the ATP synthase inhibitor): TIG-3 cells cultured 24 h with test substance, then H2O2 800 μM for two hours, XF analyzer, concentrations of SE and PQQ·2Na per example; for Recovery rate (%) from Comparative Example 1: measured value divided by that of Comparative Example 1 (H2O2 800 μM only) x 100
Description: To examine mitochondrial function, TIG-3 cells at 5.5×10^3 cells/well were seeded onto cell culture plates, and cultured at 37° C. with CO2 (5%) for 24 hours. After 24 hours of culturing, compositions each containing a sesamin-episesamin mixture and PQQ were added to the media in the wells at the respective concentrations shown in Table 1 below, and cultured for 24 hours. Subsequently, the media containing the sesamin-episesamin mixture and the PQQ were removed, and the cells in the wells were treated with media containing H2O2 (800 μM) for two hours. Subsequently, each medium was replaced with an analysis medium, and the oxygen consumption rate was analyzed using an analyzer (XF analyzer, Agilent Technologies Japan, Ltd.). After completion of analysis, the nuclei were stained with Hoechst, and the cells were photographed by a fluorescence microscope “BZ-x” (Keyence Corporation). The number of cells was counted by image analysis. The amount of ATP production was the amount of decrease in oxygen consumption rate by the ATP synthase inhibitor (oligomycin).
To examine mitochondrial function, TIG-3 cells at 5.5×10^3 cells/well were seeded onto a dedicated plate, and cultured at 37° C. with CO2 (5%) for 24 hours. The cells were further cultured for 26 hours without adding a sesamin-episesamin mixture and a composition containing PQQ to the medium 24 hours after the first culturing and without treating cells in the well with a medium containing H2O2 (800 μM) for two hours. Then, the oxygen consumption rate in Reference Example 1 was analyzed and the number of cells was counted as in Example 1, except for the differences described above. The amount of ATP production was also measured.
To examine mitochondrial function, TIG-3 cells at 5.5×10^3 cells/well were seeded onto a dedicated plate, and cultured at 37° C. with CO2 (5%) for 24 hours. The cells were further cultured for 24 hours without adding a sesamin-episesamin mixture and a composition containing PQQ to the medium 24 hours after the first culturing. Then, the oxygen consumption rate in Comparative Example 1 was analyzed and the number of cells was counted as in Example 1, except for the differences described above. The amount of ATP production was also measured.
To examine mitochondrial function, TIG-3 cells at 5.5×10^3 cells/well were seeded onto a dedicated plate, and cultured at 37° C. with CO2 (5%) for 24 hours. After 24 hours of culturing, a sesamin-episesamin mixture or PQQ was added to each medium in the wells at the corresponding concentration shown in Table 1 below, and cultured for 24 hours. Except what is described above, the oxygen consumption rate in each of Comparative Examples 2 to 9 was analyzed, and the number of cells was counted as in Example 1. The amount of ATP production was measured.
In Table 1, values in “Measured value” (pmol/min/10^3 cells) show the amount of ATP production (the amount of decrease in oxygen consumption rate by the ATP synthase inhibitor) determined above.
Values in “Recovery rate (%) from Comparative Example 1” are each obtained by dividing a measured value in one example or comparative example by the measured value of Comparative Example 1 and multiplying the resulting value with 100. A higher recovery rate means a larger amount of ATP production. […] In FIG. 1, “SE” indicates the sesamin-episesamin mixture.

SMILES: O=C([O-])c1cc(C(=O)[O-])c2c(n1)C(=O)C(=O)c1cc(C(=O)O)[nH]c1-2.[Na+].[Na+] [Comparative Example 6, PQQ·2Na]
- Measured value: amount of ATP production (amount of decrease in oxygen consumption rate by the ATP synthase inhibitor): 6.49 pmol/min/10^3 cells
- increase in the amount of ATP production compared to the H2O2-treated group according to Comparative Example 1 (TIG-3 cells, H2O2 800 μM): 1.1%
- Recovery rate (%) from Comparative Example 1 (TIG-3 cells): 101.1%

SMILES: O=C([O-])c1cc(C(=O)[O-])c2c(n1)C(=O)C(=O)c1cc(C(=O)O)[nH]c1-2.[Na+].[Na+] [Comparative Example 8, PQQ·2Na]
- Measured value: amount of ATP production (amount of decrease in oxygen consumption rate by the ATP synthase inhibitor): 7.40 pmol/min/10^3 cells
- increase in the amount of ATP production compared to the H2O2-treated group according to Comparative Example 1 (TIG-3 cells, H2O2 800 μM): 15.3%
- Recovery rate (%) from Comparative Example 1 (TIG-3 cells): 115.3%

SMILES: O=C([O-])c1cc(C(=O)[O-])c2c(n1)C(=O)C(=O)c1cc(C(=O)O)[nH]c1-2.[Na+].[Na+] [Comparative Example 7, PQQ·2Na]
- Measured value: amount of ATP production (amount of decrease in oxygen consumption rate by the ATP synthase inhibitor): 6.71 pmol/min/10^3 cells
- increase in the amount of ATP production compared to the H2O2-treated group according to Comparative Example 1 (TIG-3 cells, H2O2 800 μM): 4.6%
- Recovery rate (%) from Comparative Example 1 (TIG-3 cells): 104.6%

SMILES: O=C([O-])c1cc(C(=O)[O-])c2c(n1)C(=O)C(=O)c1cc(C(=O)O)[nH]c1-2.[Na+].[Na+] [Comparative Example 5, PQQ·2Na]
- Measured value: amount of ATP production (amount of decrease in oxygen consumption rate by the ATP synthase inhibitor): 6.06 pmol/min/10^3 cells
- decline in the amount of ATP production compared to the H2O2-treated group according to Comparative Example 1 (TIG-3 cells, H2O2 800 μM): 5.5%
- Recovery rate (%) from Comparative Example 1 (TIG-3 cells): 94.5%

SMILES: O=C([O-])c1cc(C(=O)[O-])c2c(n1)C(=O)C(=O)c1cc(C(=O)O)[nH]c1-2.[Na+].[Na+] [Comparative Example 9, PQQ·2Na]
- Measured value: amount of ATP production (amount of decrease in oxygen consumption rate by the ATP synthase inhibitor): 7.56 pmol/min/10^3 cells
- increase in the amount of ATP production compared to the H2O2-treated group according to Comparative Example 1 (TIG-3 cells, H2O2 800 μM): 17.8%
- Recovery rate (%) from Comparative Example 1 (TIG-3 cells): 117.8%
